Results published in patent publication US5614370A, “Assay to identify human C5a antagonists and agonists” (Merck & Co., Inc., priority 1994, dated 1997).
“Also recorded” adds a separate entry of the source. Non-standard residues stand in square brackets, D forms with d. Residues, ends and D or L forms follow the SMILES beside them. 1Nal = N[C@@H](Cc1cccc2ccccc12)C(=O)O; NMeF = CN[C@@H](Cc1ccccc1)C(=O)O; Cha = N[C@@H](CC1CCCCC1)C(=O)O; dCha = N[C@H](CC1CCCCC1)C(=O)O

T1: C5a receptor (Homo sapiens, UniProt P21730)
T1 construct: followed by a 20 μL aliquot of neutrophil membrane; endogenous in cells
T1 sequence (P21730 1-350): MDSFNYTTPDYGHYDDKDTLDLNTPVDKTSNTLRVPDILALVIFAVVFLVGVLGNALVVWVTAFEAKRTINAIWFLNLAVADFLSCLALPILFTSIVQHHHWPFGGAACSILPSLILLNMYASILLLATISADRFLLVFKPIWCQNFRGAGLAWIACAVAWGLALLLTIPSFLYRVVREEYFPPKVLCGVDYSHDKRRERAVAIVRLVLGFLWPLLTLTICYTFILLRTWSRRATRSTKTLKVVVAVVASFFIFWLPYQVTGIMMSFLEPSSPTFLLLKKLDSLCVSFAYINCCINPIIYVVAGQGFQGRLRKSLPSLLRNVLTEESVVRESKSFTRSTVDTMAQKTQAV

B1: C5a: 74 amino acid protein derived from the fifth component of serum complement during complement activation (protein, UniProt P01031 678-751, looked up)
C5a anaphylatoxin: TLQKKIEEIAAKYKHSVVKKCCYDGACVNNDETCEQRAARISLGPRCIKAFTECCVVASQLRANISHKDMQLGR
modifications: C5a anaphylatoxin

How the values were obtained:
[1] = test system: human neutrophil membranes; experiment: GTPase activity in neutrophil membranes (G protein activation); format: biochemical
Source text: (§1) FIG. 6A and 6B. Chemotaxis and G protein activation elicited by the hexapeptides.
Since C5a evokes such a plethora of biological responses, it is difficult to ascertain a molecule's overall functional properties from any subset of responses. […] An alternative to investigating all of the responses generated by the C5a receptor, is to determine a molecule's ability to stimulate G protein activation. Such a measurement should give an integrated view of a molecule's agonist properties. As a measure of G protein activation we have investigated the peptides' abilities to stimulate GTPase activity in human neutrophil membranes:
(§2) The method of Kupper et al. (Kupper, R. W., Dewald, B., Jakobs, K. H., Baggiolini, M. and Gierschik, P. (1992) Biochem. J. 282, 429-434) was adapted for use in microtiter plates. Neutrophil membranes were suspended in 50 mM triethanolamine-HCl, 5 mM MES, pH 7.3, containing 1 mM EDTA, 5 mM MgCl2, 143 mM NaCl, 0.16 % BSA, 1 mM ouabain, 1 mM AMP-PNP, 0.5 mM ATP, 2.5 U/mL creatine phosphokinase,. 10 mM creatine phosphate, 0.1 mM PMSF and 10 ng/mL each of leupeptin, aprotinin and chymostatin. 50 μL of membranes containing 1-5 μg protein were added to 50 μL of the same buffer containing the test agent and 0.25 μM [γ-^32 P]-GTP (2,000 cpm/pmol) in the wells of a U-shaped microtiter plate. After incubation for 15-30 rain at 29° C., 100 μL of a 10% (w/v) charcoal suspension in 100 mM H3 PO4 was added and plates were centrifuged at 2000 rpm for 5 min. 100 μL of the supernatant was transferred to an Optiplate microtiter plate and 100 μL of Microscint-40 scintillation cocktail was added. Plates were counted in a Packard TopCount microtiter plate counter.

human neutrophils = experiment: Chemotaxis, Boyden Chamber assay; format: cell-based; settings: FIG. 6A
Method: as §1
(§3) This assay is a modification of the procedure described by Sims et. al. (Sims, T. J., Geissler, F. T. and Page, R. C. (1985) J. lmmunol. Meth. 78, 279-291 ). Chemotaxis was assayed in a 48 well Neuro Probe chamber (Neuro Probe, Bethesda, MD) using ^51 Cr-labelled cells. Varying concentrations of C5a or peptide were placed in the lower chamber which was successively covered by a 100 μm nitrocellulose membrane (Neuro Probe, Bethesda, Md.) and two 3 μm polycarbonate filters. After preforming a gradient for 30 minutes at 37° C., 2×10^5 labelled cells were added to the upper chamber and allowed to migrate at 37° C. for one hour. The upper two polycarbonate filters were then discarded and the formed wells cut from the nitrocellulose membrane. The radioactivity present in these filters is a measure of the number of cells that migrated through both polycarbonate filters.
A plot of the initial concentration of agent placed in the lower chamber against the number of cells which migrate (measured by counting the ^51 Cr-labelled cells) is shown in FIG. 6A. For C5a, maximal response occurs at 10 nM. Since the cells migrate in response to the concentration gradient established across the filters, the actual stimulatory concentration is much lower than the nominal value plotted on the abcissa in FIG. 6A.

C5a receptor = target: T1, C5a receptor; experiment: Agonist activity over all C5a induced responses (chemotaxis, MPO release, calcium flux, GTPase activity, GTPγ-S binding); format: cell-based; settings: C089 tested up to and including 100 μM
Method: The EC50 measures the concentration of compound at which a 50% maximal stimulation of a given biological response induced by C5a is achieved (chemotaxis, MPO release, calcium flux, GTPase activity or GTPγ-S binding), and the IC50 is the concentration at which 50% maximal inhibition of C5a binding is achieved.
This assay was performed on human neutrophils as previously reported and it is a measure of C5a or peptide induced exocytosis (Rollins, T. E. and Springer, M. S. (1985) J. Biol. Chem. 260, 7157-7160).
Ligand induced Ca^2+ fluxes were measured by following the change in Indo-1 induced fluorescence on a FACS analyzer as previously described (Van Riper, G., Siciliano, S. J., Fischer, P. A., Meurer, R., Springer, M. S. and Rosen, H. (1993) J. Exp. Med. 177, 851-856.).
as §3, with “Varying concentrations of C5a or peptide were placed in the lower chamber which was successively covered by a 100 μm nitrocellulose membrane (Neuro Probe, Bethesda, Md.) and two 3 μm polycarbonate filters.” left out
as §2

[2] = nominal initial concentration in lower chamber

EC50 ([1]; FIG. 6B, read-out: ED50 for stimulation of GTPase activity) [nM]	Molecule	stimulation of GTPase activity / G protein activation in words ([1]; FIG. 6B)	chemotactic response in words (human neutrophils)	concentration of maximal chemotactic response (maximal migration) (human neutrophils; [2])	agonist activity in words, all responses (C5a receptor)	GTPase activity ([1]; 3 nM C5a, absence of C089, raised from 46) [pmol/min/mg protein]	concentration of maximal chemotactic response (human neutrophils; [2]) [nM]
–	CN[C@@H](Cc1ccccc1)C(=O)N[C@@H](CCCCN)C(=O)N1CCC[C@H]1C(=O)N[C@H](CC1CCCCC1)C(=O)N[C@@H](Cc1ccccc1)C(=O)N[C@H](CCCNC(=N)N)C(=O)O [C026, NMeF--K--P-dCha-F-dR] (H-[NMeF]KP[dCha]F[dR]-OH)	full agonist in chemotaxis or C5a receptor-linked G-protein activation; also recorded: somewhat reduced ability to stimulate the GTP hydrolysis	full agonist in chemotaxis; also recorded: strong chemoattractants; also recorded: as chemotactic as C028	1 µM	–	–	–
100	CN[C@@H](Cc1ccccc1)C(=O)N[C@@H](CCCCN)C(=O)N1CCC[C@H]1C(=O)N[C@H](CC1CCCCC1)C(=O)N[C@@H](CC1CCCCC1)C(=O)N[C@H](CCCNC(=N)N)C(=O)O [C028, MePhe Lys Pro dCha Cha dArg] (H-[NMeF]KP[dCha][Cha][dR]-OH)	stimulates as much GTPase activity as does C5a	strong chemoattractants	1 µM	almost complete agonists of all of these responses	–	–
–	CN[C@@H](Cc1ccccc1)C(=O)N[C@@H](CCCCN)C(=O)N1CCC[C@H]1C(=O)N[C@H](CC1CCCCC1)C(=O)N[C@@H](Cc1c[nH]c2ccccc12)C(=O)N[C@H](CCCNC(=N)N)C(=O)O [C089]	does not stimulate G protein activation; also recorded: fails entirely to stimulate GTP hydrolysis	little or no ability to stimulate a chemotactic response	–	without agonist activity in any of the assays; also recorded: do not induce a response; also recorded: completely devoid of agonist activity	–	–
–	CN[C@@H](Cc1ccccc1)C(=O)N[C@@H](CCCCN)C(=O)N1CCC[C@H]1C(=O)N[C@H](CC1CCCCC1)C(=O)N[C@@H](Cc1cccc2ccccc12)C(=O)N[C@H](CCCNC(=N)N)C(=O)O [C061] (H-[NMeF]KP[dCha][1Nal][dR]-OH)	significantly lower GTPase activity	good chemotactic activity; also recorded: elicits as great an accumulation of cells as either C026, or C028, or for that matter, C5a	about 100 μM	–	–	–
–	CC(C)C[C@H](NC(=O)[C@H](CC1CCCCC1)NC(=O)[C@H](CC1CCCCC1)NC(=O)[C@H](C)NC(=O)[C@H](CCCCN)NC(=O)[C@H](Cc1ccccc1)NC(=O)[C@@H](N)Cc1ccc(O)cc1)C(=O)N[C@H](Cc1ccccc1)C(=O)N[C@@H](CCCNC(=N)N)C(=O)O [C009, Tyr Phe Lys Ala Cha Cha Leu dPhe Arg] (H-YFKA[Cha][Cha]L[dF]R-OH)	–	–	–	C5a agonist	–	–
–	B1	–	–	–	–	64	10
